The numbers were not newly measured in PMC3145338 (Journal of the American Chemical Society, 2011), which cites them from elsewhere.

The term Kd denotes a measure of binding affinity in units of concentration.

Like-named read-outs stand apart in the source and are kept apart here. Marks after values point to notes of the source that are not given here.

For this series the following is noted: BCA; for Kd: read-out: Kd^surf.
Where [1] appears, read: SAM ligand 2, χ = 0.05, ref [Mrskich, 1995].
Setting [2] is: SAM ligand 2, ref [Lahiri, 1999a].
The mark [3] stands for this setting: SAM ligand 2, ref [Lahiri, 1999b].

For the substance BCA: bovine carbonic anhydrase, under setting [1], the “koff^surf” value is given as 5.4 ^e 10^−3 s^−1, the “kon^surf” value is 1.9 ^e 10^4 M^−1 s^−1, the “ΔG°surf” value was −9.0 ^e kcal mol^−1 and the Kd is 260 nM. Moreover, under setting [2], the “koff^surf” value was 5.3 ^e 10^−3 s^−1, the “kon^surf” value is given as 3.5 ^e 10^4 M^−1 s^−1, the “ΔG°surf” value is reported as −9.3 ^e kcal mol^−1 and the Kd was 150 nM. Besides, under setting [3], the “koff^surf” value was 5.4 ^e 10^−3 s^−1, the “kon^surf” value is reported as 0.9 ^e 10^4 M^−1 s^−1, the “ΔG°surf” value is on record as −8.5 ^e kcal mol^−1 and the Kd is 560 nM. Besides, the “koff^surf” value (mixed SAMs χ = 0.05, ref Mrksich et al. [10]) is 0.0054 s⁻¹.
